# Key:
# [1] = system: Escherichia Coli 078; assay: Antibacterial activity in vitro, agar diffusion in Davis Mingioli medium; type: cell-based; settings: COLI078, product at 25 mg/l, 24 hours at 37° C., read-out: inhibition zones observed (diameter in mm)
# Description: (§1) The antibacterial activity of the products was determined by the method of diffusion in a Davis Mingioli medium with 1% of agar added to it. The agars used were poured into Petri dishes at 48° C., after inoculating with […] with the bacterial strain under test. The inocula came from a culture made 24 hours earlier in a Davis Mingioli broth. After the agars had hardened, the aqueous solutions of the products being studied were introduced into wells (9 mm) hollowed in the medium with a punch. The inhibition zones observed (diameter in mm) were measured after incubation for 24 hours at 37° C.
# [2] = system: Providencia sp. DU48; assay: as above; type: cell-based; settings: product at 25 mg/l, 24 hours at 37° C., read-out: inhibition zones observed (diameter in mm)
# Description: as §1
# [3] = system: Salmonella typhimurium MZ11; assay: as above; type: cell-based; settings: Salmonella enterica, product at 25 mg/l, 24 hours at 37° C., read-out: inhibition zones observed (diameter in mm)
# Description: as §1
# [4] = system: Strain IP 52 145; assay: Antibacterial activity in vivo, protection of infected mice; design: species or system Swiss female mice; settings: 5 mg/kg intramuscular 24 hours before intravenous infection with strain IP 52 145
# Description: Swiss female mice weighing from 18 to 20 g (Charles River Cobs noninbred CDl) were used for this experiment with each group comprising 20 animals. The various products were put in solution in apyrogenous physiological serum to obtain concentrations of 1-10-100 mcg/mouse or: 50-500-5000 mcg/kg.
# The lyophilized strain was re-hydrated with a few drops of soja trypcase broth (BioMerieux) and a tube of 10 ml of soja trypcase broth was inoculated with the suspension obtained and cultivated for 18 hours in an incubator at 37° C. Tubes of preserving agar (Pasteur) were inoculated with this culture by central stabing. After 18 hours of culture in an incubator at 37° C., the tubes were kept at 22° C.
# A tube of soja trypcase broth was inoculated from a preserving agar and cultivated for 18 hours in an incubator at 37° C. Inclined soja trypcase agars were inoculated from this culture. […] The germ concentration was evaluated by counting with a Coulter Counter. […] The quantity of revivable germs injected was checked by spreading on Petri dishes containing trypcase agar.
# Administration was done with an intramuscular injection in a volume of 0.05 ml/mouse 24 hours before infection. […] Where a clear increase in survival could not be detected after 21 days of observation, an average survival time (AST) was calculated for each group. […]
# [5] = system: Enterobacter cloacae 1321E; assay: Antibacterial activity in vitro, agar diffusion in Davis Mingioli medium; type: cell-based; settings: product at 25 mg/l, 24 hours at 37° C., read-out: inhibition zones observed (diameter in mm)
# Description: as §1
# [6] = system: human monocytes; assay: Stimulation of monocyte cells: Interleukine-1 (IL-1) test on culture supernatants; type: cell-based; settings: for direct effect on human monocytes, production of an IL-1 activity in the culture supernatants: with 5 g of product
# Description: (§2) The mononucleus cells of the circulating blood of normal donors were separated according to the standard technique described by Boyum using a Ficoll gradient. After washing, the mononuclear cells were incubated at 37° C. for one hour at the rate of 5.10^6 monocytes (NSE^+ cells) per ml of culture medium using 5 ml per culture flask. The culture medium used in this experiment was made up of RPMI 1640 with the addition of antibiotics and Hepes buffer. After one hour, the non-adherent cells were removed by washing the flasks with medium previously heated to 37° C. and the adherent cells composed mostly of monocytes (>90%) were put back in culture in complete RPMI medium without serum in the presence of various quantities of products under test, which had previously been put in solution in a buffer (Dulbecco) without Ca^2+ or Mg^2+. The culture was continued for 24 or 48 hours and the supernatants of the cells were then removed, centrifuged, separated into equal lots and held either at -80° C. or at -20° C. The supernatants of the culture were replaced in the flasks by the same amount of apyrogenous distilled water to dissolve the cells. The lysate was recovered, separated into equal lots and also kept at -20° C.
# This test was described for the first time by Gery et al in 1972 [Gery et al 1972. Potentiation of the T lymphocyte response to mitogens. II. The cellular source of potentiating mediator (s) J. Exp. Med., 136-143]. It is based on the co-mitogen action of IL-1 in the presence of an antigen (mimicked by phytohemaglutinine in the test) on the thymocytes of mice. 1.5×10^6 thymocytes of mice C3H/HeJ (from the C.S.E.A.L. of Orleans) were put in culture for three days in the presence of various dilutions of supernatants and of cell lysates which may contain IL-1 activity and of PHA-P Wellcome (1 ug/ml) in culture plates with 96 flat bottomed wells, in a final volume of 200 ul of medium composed of RPMI 1640 containing in addition to antibiotics (penicillin 1 U/ml - streptomycin 1000 U/ml) of Hepes buffer, 1 mM of glutamine, 2 mM 5% of calf serum and […] of 2-mercapto ethanol. After 68 hours of culture, 1 μCi of tritiated thymidine was added to each well (^3 H-methyl thymidine, CEA Saclay, TMM79A specific activity 1 Ci/mM=37 GBq/mM) and the radioactivity incorporated by the cells was evaluated after the cultures had been filtered on Skatron type semi-automatic collecting apparatus and the filters had been counted in a liquid scintillation counter (Beckman). The results were expressed by the difference between the impulses per minute incorporated by the cultures in the presence of supernatants and the impulses per minute incorporated by the control cultures.
# [7] = system: human monocytes; assay: Stimulation of monocyte cells: Tumor Necrosis Factor (TNF) test on culture supernatants; type: cell-based; settings: for direct effect on human monocytes, production of a TNF activity in the culture supernatants: with 5 g of product
# Description: as §2
# The TNF activity is shown by the toxicity of this factor on the L-929 target cells (sub-clone alpha) and the technique was sensitized by adding D actinomycin in the test. The L cells were distributed at a rate of 2×10^4 cells per well of a flat-bottomed microplate in 100 μl of RPMI 1640 medium enriched with 5% of calf serum, glutamine, Hepes buffer and antibiotics. After 24 hours, various dilutions of the supernatants under test were added in a volume of 100 μl, as well as a dose of D actinomycin of 1 μg/ml. After 24 hours of culture, the quantity of undissolved cells was evaluated by coloring the plates with crystal violet and measuring the optical density of the different wells on a multiscan reader. RESULTS: The product of Example 9 stimulated the monocytes and their production of IL-1 and TNF. Furthermore, there was synergy between the products and the gamma Interferon.
# [8] = human blood monocytes, culture 24 or 48 hours
# [9] = in the presence of gamma Interferon (10^3 U/ml; CHU--IFN--g)
smiles,measurement,setting,value
"C[C@H](N)C(=O)NC(C=CCCC(=O)O)C(=O)O (stereo partly drawn) [Example 13, 2-(L-alanylamino)-3-heptenedioic acid]",zone of inhibition at 25 µg/mL,[1],17.5 mm
same,zone of inhibition at 25 µg/mL,[2],22 mm
same,zone of inhibition at 25 µg/mL,[3],20 mm
CCCCCCCCCCCCCCCCCC(=O)N[C@@H](C)C(=O)N[C@H](CCC(=O)NC(CC=CCC(=O)[O-])C(=O)[O-])C(=O)O.[Na+].[Na+] (some centres unmarked) [Example 8],"protection, expressed in AST (average survival time) or in survival at the end of 21 days of observation",[4],particularly significant protection
"C[C@H](N)C(=O)NC(CC=CCC(=O)O)C(=O)O (stereo partly drawn) [Example 6, 6-(L-alanylamino)-3-heptenedioic acid]",zone of inhibition at 25 µg/mL,[5],10 mm
same,zone of inhibition at 25 µg/mL,[3],24 mm
"NCCCC[C@H](N)C(=O)NC(CC=CCC(=O)O)C(=O)O (stereo partly drawn) [Example 9, 6-(L-lysylamino)-3-heptenedioic acid]",stimulation of the monocytes and their production of IL-1,[6]; [8],stimulated
same,production of monokines (IL-1) in the presence of gamma Interferon,[6]; [9],at least increased the production
same,"direct effect on human monocytes, production of an IL-1 activity in the culture supernatants",[6],showed a direct effect
same,stimulation of the monocytes and their production of TNF,[7]; [8],stimulated
same,production of monokines (TNF) in the presence of gamma Interferon,[7]; [9],at least increased the production
same,"direct effect on human monocytes, production of a TNF activity in the culture supernatants",[7],showed a direct effect
"NC(CC=CCC(=O)O)C(=O)O (centres unmarked) [Example 5, 6-amino-3-heptenedioic acid]","direct effect on human monocytes, production of an IL-1 activity in the culture supernatants",[6],showed a direct effect
same,"direct effect on human monocytes, production of a TNF activity in the culture supernatants",[7],showed a direct effect

# Source: US5030715A, “Novel aminopimelic acids” (Roussel Uclaf, priority 1987, dated 1991)
